From patent publication US20210163424A1, “ECO-FRIENDLY MATERIALS AND METHODS FOR RENEWABLE AND SUSTAINABLE APPLICATIONS IN MATERIAL CHEMISTRY” (NDSU RESEARCH FOUNDATION, priority 2016, published 2021) come the findings set out here.

Data set [1] in a line: Ground state acidity (pKa) from α-plot of UV-Vis spectra at various pH. The format is physicochemical. As to the method:
(§1) Thus pKa* is most commonly calculated from the difference in the S1 excited state 0-0 transition of the acid (EHA) and the conjugate base (EA−)(2c). In order to determine the excited state acidity of the vanillin analogs, the ground state acidity was determined. An α-plot was made, by taking the UV-Vis spectra of ortho-vanillin at various pH using NaOH and HCl as the base and acid respectively (5c). Both iso-vanillin and vanillin ground state acidities were literature reported. After obtaining the ground state acidity the excited state acidity (pKa*) was investigated. Fluorescence, phosphorescence and luminescence spectra were measured in different solvents. It was determined that none of the vanillin analogs fluoresced appreciably and therefore were all poor photoacids. […] Various substituted Grignard reagents were used to reduce the carbonyl to a tertiary alcohol therefore eliminating the carbonyl functionality and hindering inter-system crossing (FIG. 32).
(§2) The ground state and excited state acidities were determined. […] Derivatives 1a and 1b were handled in a similar fashion.

Data set [2] in a line: Excited state acidity / photoacidity (pKa*) from Foster cycle. The format is physicochemical.
Source text: Investigations commenced determining the extent or existence of excited state proton transfer, photoacidity (pKa*), of vanillin and its analogs ortho-vanillin and iso-vanillin. From the Foster cycle, pKa* is mathematically defined by the following equation,
=pKa*+pKa+(EA−−EHA)/2.3RT.^1 (1)
as §1, §2

Regarding `COc1ccc(C(C)O)cc1O` (stereo not drawn) [1b], the pKa (commonly the pH at which an ionisable group is half protonated) in data set [1] is 9.8. In addition, in data set [2], the “pKa*” value was found to be 5.6.

Take `COc1cc(C(C)O)ccc1O` (stereo not drawn) [1a]: the pKa in data set [1] was determined as 9.8. For the same molecule, in data set [2], the “pKa*” value is 9.6.

In data set [1], `COc1cccc(C(C)O)c1O` (stereo not drawn) [1c] gave a pKa of 8. In addition, the “pKa*” value in data set [2] came out at 4.9.
